Several values for one entry are separate records, joined by “and”; a condition that tells them apart may be missing. Identical values can stand only once. Entries after “also recorded” stand apart in the source; their conditions may differ.
Experiments:
[1] = test system: A121 human ovarian adenocarcinoma xenografts; assay: antitumor response against A121 human ovarian adenocarcinoma xenografts in mice; format: in vivo
Protocol: (§1) […] where 1 represents length; w--width; and h--height. Tumor sizes were monitored 2 times/week until the median volume (V=0.4(a^2 ×b) where a is the smaller of the two perpendicular tumor diameters). As an indication of drug toxicity, animal weights were also recorded at the time of tumor volume measurement. Statistical analyses were performed on mouse tumor size and weight parameters by using the Mann-Whitney test.
(§2) Tumor growth suppression was measured by plotting the mean tumor volume versus the number of days post-inoculation with polyamine analog (growth curve analyses). Suppression is determined by comparison with the growth of untreated tumors (%T/C). More specifically,: %T/C is (treated tumor volume minus pretreatment volume) divided by (control tumor volume minus pretreatment volume)×100. Typically this is measured either when the control tumor volume reaches 1000 mm^3, or at the last day of treatment.
(§3) Tumor regression is measured as a percentage representing the average percentage of decrease in tumor volume from the largest pretreatment volume value.
(§4) Repression of regrowth is represented as regrowth delay, determined as the number of days following cessation of treatment when median group tumor volume exceeds 200 mm^3 (an arbitrary indication of regrowth which was determined statistically).
Cells from malignant solid human tumor tissue types, other than melanoma, have also been evaluated for their responsiveness to polyamine analog treatment including clonal cell lines A121 (human ovarian adenocarcinoma),A549 (lung adenocarcinoma), and HT29 colon adenocarcinoma). These cell lines were evaluated for the level of SSAT induction and potency of antitumor response following BENSPM treatment (80 mg/kg 3×/day×6 days) in-vivo using the methodology previously described in this embodiment. Also, dose of BENSPM was compared (80 mg/kg versus 40 mg/kg). The baseline of SSAT activity in the control mice (2 of 7 mice) ranged from 40 to 90 pmol/min/mg. Tumor cells from the human xenografts A121, A549, and HT29 were removed from two mice of each treated group of seven mice containing the respective xenograft at 16 hours following the final BENSPM injection to evaluate the level of induction of SSAT activity. […] The response to the polyamine analog was heterotypic. […] As discussed previously, it is not known whether the heterotypic antitumor response may be due to either the individual properties of the clonal line or the particular solid tumor type.

[2] = test system: PANUT-3 human melanoma xenografts; assay: antitumor response against PANUT-3 human melanoma xenografts in mice; format: in vivo
Protocol: as §1, §2, §3, §4
(§5) For example, human melanoma cell lines including MALME-3, SH-1, PANUT-3 and LOX were evaluated for the level of SSAT induction and potency of antitumor response following BENSPM treatment (80 mg/kg 3×/day×6 days) using the methodology previously described in this embodiment. […] The baseline of SSAT activity in the control mice (2 examined of 7 mice) ranged from 50 to 90 pmol/min/mg. […] Note that following BENSPM treatment (as discussed above in the context of Tables 4 and 5), suppression of tumor growth of PANUT-3, unlike suppression of MALME-3 growth, lasted for only about 12 days. Further, the levels of SSAT in PANUT-3 at two weeks post-treatment, approached the levels in the control and correlated with the loss of antitumor activity.

[3] = test system: S-adenosylmethionine decarboxylase (SAMDC); assay: SAMDC activity in human melanoma xenografts in-vivo
[4] = test system: SH-1 human melanoma xenografts; assay: antitumor response against SH-1 human melanoma xenografts in mice; format: in vivo; conditions: SH-1, BENSPM at 80 mg/kg
Protocol: as §1, §2, §3, §4, §5

[5] = test system: human tumor xenografts; assay: antitumor efficacy in-vivo (general statement); conditions: compared to other bis-ethyl spermine analogs
[6] = test system: polyamine pools of host tissue; assay: polyamine pools in host tissue of treated mice; format: in vivo, mouse; design: unit not given here; conditions: 40 mg/kg
[7] = test system: LOX human melanoma cells; assay: growth of LOX melanoma cells in-vitro (FIG. 5); format: cell-based; conditions: 10 μM BESPM, 48 hours
Protocol: (§6) As mentioned previously, cells from malignant solid tumor respond to polyamine analog therapy heterotypically. SSAT induction and antitumor response may vary not only among the solid tumor tissue type, but also with the clonal line of tumor of a particular solid tissue type. However, a correlation between the level of induction of SSAT and the potency of antitumor response has been observed in tumors of a particular solid tissue type. For example, seven human melanoma cell lines were assayed in-vitro for their response, as determined by cell growth and level of SSAT induction, to 10 μM BESPM at 48 hours post-treatment. As summarized in FIG. 5, growth among the cell lines decreases as SSAT induction increases.

[8] = test system: LOX melanoma cells; assay: N^1 -acetylspermidine in LOX cell cultures; format: cell-based, human; conditions: 10 μm BESPM, 48 hours
Protocol: (§7) To illustrate this embodiment, LOX and MALME-3 cell cultures were treated for 48 hours with 10 μm BESPM. The cells from each culture were harvested and assayed for SSAT activity. Media samples were prepared by treating the samples with 50% trichloroacetic acid to give a final concentration of 10% and then centrifuged at 15,000×g for 10 minutes. The supernatant was then filtered through a 0.22-μm filter, extracted with several volumes of ether, lyophilized, and resuspended in 10% trichloroacetic acid. N^1 -acetylspermidine levels of cells and media samples were then measured by use of high-pressure liquid chromatography. […] Similarly, N^1 -acetylspermidine levels from MALME-3 control cells, media from control cell cultures, and treated MALME-3 cells contained minimal levels of N^1 -acetylspermidine.

[9] = test system: cell growth; conditions: in-vitro; cited from earlier work
[10] = test system: SH-1 human melanoma cells; assay: growth of SH-1 melanoma cells in-vitro (FIG. 5); format: cell-based; conditions: SH-1, 10 μM BESPM, 48 hours
Protocol: as §6

[11] = test system: MALME-3 melanoma cells; assay: N^1 -acetylspermidine in MALME-3 cell cultures; format: cell-based, human; conditions: MALME-3, 10 μm BESPM, 48 hours
Protocol: as §7

[12] = A121, BENSPM 80 mg/kg 3x/d × 6d

## CCNCCCNCCCNCCCNCC [BENSPM, N^1,N^11 -bis(ethyl)norspermine]
[1]; [12]
  % T/C at 1 g: < 0%
  Tumor Regression: showed tumor regression; also recorded: Present
[1]; A121, BENSPM 80 mg/kg 3x/d × 6d, dt 5 days
  Regrowth Delay: 3.2 × dt
[1]; A121, BENSPM 80 mg/kg 3x/d × 6d, for duration of experiment
  No Regrowth: 2 of 5 and 2/5
[1]; A121 xenograft, 80 mg/kg 3×/day×6 days
  total growth suppression period: 16 days
[2]; BENSPM 80 mg/kg 3×/day×6 days
  tumor regression, PANUT-3 versus MALME-3: significantly more tumor regression
[2]; PANUT-3, BENSPM at 80 mg/kg
  % T/C at 1 g: 10%
  Tumor Regression: Major
[2]; PANUT-3, BENSPM at 80 mg/kg, dt 7 days
  Regrowth Delay: 2.7 × dt
[2]; PANUT-3, BENSPM at 80 mg/kg, for duration of experiment
  No Regrowth: 0/5
[2]; PANUT-3 xenograft, following BENSPM treatment
  duration of suppression of tumor growth: about 12 days
[3]; MALME-3 study
  SAMDC levels: ODC and SAMDC levels were not suppressed
[3]; PANUT-3 study
  SAMDC levels: ODC and SAMDC levels were not suppressed
[4]
  % T/C at 1 g: < 0%
  Tumor Regression: Present
[4]; dt 15 days
  Regrowth Delay: 2.1 × dt
[4]; for duration of experiment
  No Regrowth: 1/5
[5]
  antitumor efficacy / activity, relative: most potent antitumor efficacy; also recorded: most potent antitumor activity
[6]; kidney, 2 wks post-treatment
  PUT pool: 20/20
  SPD pool: 210/210
  SPM pool: 360/370
[6]; kidney, 16 hrs post-treatment
  PUT pool: 100/40
  SPD pool: 100/100
  SPM pool: 260/250
[6]; liver, 2 wks post-treatment
  PUT pool: 20/20
  SPD pool: 530/530
  SPM pool: 400/330
[6]; liver, 16 hrs post-treatment
  PUT pool: 90/100
  SPD pool: 80/90
  SPM pool: 170/200

## CCNCCCNCCCCNCCCNCC [BESPM, N^1,N^12-bis(ethyl)spermine]
[7]
  growth inhibition (FIG. 5): least growth inhibition
[8]
  N^1 -acetylspermidine Extracellular: < 0.1 nmol/culture
  N^1 -acetylspermidine Intracellular: < 0.1 nmol/culture
[9]
  concentration inhibiting cell growth: 1 to 10 µM
[10]
  growth inhibition (FIG. 5): least growth inhibition
[11]
  N^1 -acetylspermidine Intracellular: 0.1 nmol/culture

Reference: patent publication US5498522A, “Methods for the use of spermidine/spermine N^1 -acetyltransferase as a prognostic indicator and/or a tumor response marker” (priority 1993, dated 1996)
